Experimental data taken from patent US11246873B2, “Directed differentiation of oligodendrocyte precursor cells to a myelinating cell fate” (The Scripps Research Institute, priority 2011, dated 2022).

Tests used:
[1] = T-cell dependent and independent B-cell responses to TNP-KLH, TNP-LPS, TNP-Ficoll (serum IgG, IgM ELISA); assay type: in vivo, mouse; settings: 10 mg/kg
Method: Serum was isolated at various time points and IgG and IgM levels were measured by ELISA. […] Error bars represent standard deviations from 3 replicate ELISAs performed on samples from 5 mice in each treatment group.
(§1) The primary immunological processes involved in MS and EAE are T-cell mediated and the primary treatment paradigms are based on immunomodulatory drugs (T. Kopadze et al., Arch Neurol, 63, 1572 (2006); J. M. Greer et al., J Immunol, 180, 6402 (2007), M. P. Pender and J. M. Greer, curr Allergy Asthma Rep, 7, 285 (2007)).

[2] = test system: splenocytes of EAE mice; settings: mouse, in vivo, ip, 10 mg/kg
Method: (A-K) EAE was induced in mice by injecting PLP and pertussis toxin. […] Total splenocytes were isolated from the mice, stimulated with PMA and ionomycin, and analyzed for various populations of immune cells and cytokine secretion after 48 hours. Protein transport was blocked in cells used for cytokine analysis using Monoeiosin. […] Error bars indicate standard deviation of the mean within each group of 5 mice.
as §1

[3] = test system: splenocytes of normal mice; experiment: Immune cell populations and cytokine production in splenocytes of normal mice; assay type: in vivo, mouse; settings: 10 mg/kg i.p., 14 days; for cytokine production (IL2, IL10, TNF, IFN-γ producing CD4+ T-cells) / number of B cells: 10 mg/kg
Description: Total splenocytes were isolated from the mice, stimulated with PMA and ionomycin and analyzed for various populations of immune cells and cytokine secretion after 48 hrs. Protein transport was blocked in cells used for cytokine analysis using monoeiosin. […] Error bars indicate standard deviation of the mean within each group of 5 mice.
as §1

SMILES: CN1[C@@H]2CC[C@H]1C[C@@H](OC(c1ccccc1)c1ccccc1)C2 [benztropine]
- TNP-Ficoll induced B-cell responses (serum IgM and IgG) [1]: no effect on IgG and IgM production
- TNP-KLH induced B-cell responses (serum IgM and IgG) [1]: no effect on IgG and IgM production
- TNP-LPS induced B-cell responses (serum IgM and IgG) [1]: no effect on IgG and IgM production
- number of total splenocytes, CD4+, CD8+, CD4+/CD44Hi and CD8+/CD44Hi T-cells [2]: no effect
- number of total splenocytes, CD4+, CD8+, CD4+/CD44Hi and CD8+/CD44Hi T-cells [3]: no effect
- cytokine production (IL2, IL10, TNF, IFN-γ producing CD4+ T-cells) [3]: no effect on cytokine production
- number of B cells [3]: minor but significant decrease
- cytokine production (IL2, IL10, TNF, IFN-γ producing CD4+ T-cells) ([3]; listed as Benztropine): no effect
- number of B cells ([3]; listed as Benztropine): no effect
